The source of these data is patent US11033569B2, “Compounds,Compositions, and methods for the treatment of disease” (Sperovie Biosciences, Inc., priority 2016, dated 2021).

The test system of experiment [1] is A20 lymphoma. Briefly: Syngeneic A20 lymphoma mouse model. Type of experiment: in vivo. The following applies: monotherapy; for tumor growth: compared with vehicle.
Experiment [2] concerns NF-κβ-luc reporter. Briefly: NF-κβ-luc reporter activation in HEK293 (SZ14) cells, screen for STING agonists. The experiment is classed as cell-based. Conditions: digitonin buffer, 5 hours, read-out: NF-KB EC50. As for the experimental part:
(§1) ISG54 or NF-κβ activity was determined using the Steady-glo buffer system (Promega), and are expressed as EC50 values summarized in Table 3 below. […] This calculation is applicable for compounds with enzyme inhibition activity, as the baseline for an untreated sample may be set at 100% enzymatic activity, and therefore % inhibition is evaluated based on this 100% maximal basis. For these studies, the EC50 value relates to the concentration required to achieve a value 50% activity level above the untreated sample set at 0%.
(§2) Data are shown as fold induction over cells that received DMSO (compound carrier) alone as the mean, +/−standard deviation of duplicate wells per stimulant.

In experiment [3] the test system is ISG54 ISRE-luc reporter. Briefly: ISG54 ISRE-luc reporter activation in HEK293 (SZ14) cells, screen for STING agonists. The following applies: digitonin buffer, 5 hours, read-out: IRF EC50. Type of experiment: cell-based. As for the experimental part:
as §1, §2

Experiment [4] concerns THP1 cells and PBMCs. As to the kind of experiment: Gene expression of ISGs and PRRs in THP1 and PBMCs (real time PCR). Type of experiment: cell-based. The following applies: 5 uM, Lipofectamine LTX, 20 h. As for the experimental part:
(§3) After incubation for 20 h, RNA was extracted and gene expression of different Interferon Stimulated Genes (ISGs) and various Pattern Recognition Receptors (PRRs) was evaluated by real time PCR. Fold Induction was calculated by ΔΔct method.
as §3
A general note: Quantitative PCR measures a nucleic acid by following its amplification.

Experiment [5] relates to mouse macrophages. As to the kind of experiment: Type I IFN signaling in mouse macrophages. The experiment is classed as cell-based. Conditions: mouse macrophages (FIG. 36B). As for the experimental part: Activity of secreted luciferase in cell culture supernatant was measured using Invivogen Quanti-luc. Data are shown as fold induction over DMSO treated cells (mean±standard deviation of triplicate wells per stimulant).

Experiment [6] concerns human monocytes. Briefly: Activity in human monocytes. Type of experiment: cell-based. The following applies: human monocytes (FIG. 36A).
Experiment [7] relates to THP1 cells. As to the kind of experiment: Type III IFN (IL-29) production in THP1 cells (ELISA). The experiment is classed as cell-based. The following applies: 21 hrs. As for the experimental part:
Level of IL-29 in culture supernatant was determined using ELISA. Results shown are the average±standard deviation of duplicate wells.
On the technique in general: ELISA stands for enzyme-linked immunosorbent assay.

Experiment [8] concerns CT26 colon cancer. Briefly: Syngeneic CT26 colon cancer mouse model. Type of experiment: in vivo. Conditions: intratumoral administration.
[9] abbreviates: vs vehicle, vehicle and Ethanol (FIG. 80).

For orientation: EC50 means the concentration giving half of the maximal effect.

“Also recorded” adds a separate entry of the source. Like-named read-outs stand apart in the source and are kept apart here. A value given as a limit tells only on which side of the number the result lay.

Take `CCCCCCCCCCOc1ccc(C(=O)Oc2ccc(CS[P@]3(=O)OC[C@H]4O[C@@H](n5cnc6c(N)ncnc65)[C@H](F)[C@@H]4OP(=O)(O)OC[C@H]4O[C@@H](n5ccc(=O)[nH]c5=O)[C@H](F)[C@@H]4O3)cc2)cc1.N` (single isomer, unassigned) [Cmd 1A]: in experiment [1], the survival rate entry is reported as “significantly improve the survival rate” and the tumor growth entry was “inhibit mouse A20 B cell lymphoma tumor cells”. The concentration giving a half-maximal response (EC50) in experiment [2] was in the range of 50 to 500 nM. In experiment [3], the half-maximal effective concentration (EC50) is less than 50 nM.

With `CCCCCCCCCCOc1ccc(C(=O)Oc2ccc(CS[P@@]3(=O)OC[C@H]4O[C@@H](n5cnc6c(N)ncnc65)[C@H](F)[C@@H]4OP(=O)(O)OC[C@H]4O[C@@H](n5ccc(=O)[nH]c5=O)[C@H](F)[C@@H]4O3)cc2)cc1` (single isomer, unassigned) [Cmd 1B], the EC50 in experiment [2] is 50 to 500 nM; in experiment [3], less than 50 nM.

Consider `Nc1ncnc2c1ncn2[C@@H]1O[C@@H]2COP(=O)(S)O[C@H]3[C@@H](F)[C@H](n4ccc(=O)[nH]c4=O)O[C@@H]3COP(=O)(S)O[C@H]2[C@H]1F` (some centres unmarked) [Cmd 2], for which the EC50 in experiment [2] (Homo sapiens) is more than 2000 nM; in experiment [3] (Homo sapiens), 1000 to 2000 nM.

As for `CCCCCCCCCCOc1ccc(C(=O)Oc2ccc(CSP3(=O)OC[C@H]4O[C@@H](n5cnc6c(N)ncnc65)[C@H](F)[C@@H]4OP(=O)(SCc4ccc(OC(=O)c5ccc(OCCCCCCCCCC)cc5)cc4)OC[C@H]4O[C@@H](n5ccc(=O)[nH]c5=O)[C@H](F)[C@@H]4O3)cc2)cc1` (some centres unmarked) [Cmd 4], in experiment [4], the “induction of ISG and PRR-associated genes, THP1 compared to PBMCs” value is “Enhanced Activity”. Further, the concentration for a half-maximal effect (EC50) in experiment [2] is more than 2000 nM; in experiment [3], 1000 to 2000 nM.

With `CC(C)OC(=O)OCSP1(=O)OC[C@H]2O[C@@H](n3cnc4c(N)ncnc43)[C@H](F)[C@@H]2OP(=O)(O)OC[C@H]2O[C@@H](n3ccc(=O)[nH]c3=O)[C@H](F)[C@@H]2O1.N` (some centres unmarked) [Cmd 5], the “activity relative to natural STING ligand 3′,3′-cGAMP” value in experiment [5] and in experiment [6] was “more active” each time. In addition, the EC50 in experiment [2] and in experiment [3] was more than 2000 nM in each case.

Take `CCCCCCCCOc1ccc(C(=O)Oc2ccc(CSP3(=O)OC[C@H]4O[C@@H](n5cnc6c(N)ncnc65)[C@H](F)[C@@H]4OP(=O)(O)OC[C@H]4O[C@@H](n5ccc(=O)[nH]c5=O)[C@H](F)[C@@H]4O3)cc2)cc1.N` (some centres unmarked) [Cmd 12]: the “activity relative to natural STING ligand 3′,3′-cGAMP” value in experiment [5] and in experiment [6] was “more active” in each case. Besides, the concentration for a half-maximal effect (EC50) in experiment [2] and in experiment [3] was less than 50 nM throughout.

Turning to `CCCCCCCCCCCC(=O)Oc1ccc(CSP2(=O)OC[C@H]3O[C@@H](n4cnc5c(N)ncnc54)[C@H](F)[C@@H]3OP(=O)(O)OC[C@H]3O[C@@H](n4ccc(=O)[nH]c4=O)[C@H](F)[C@@H]3O2)cc1.N` (some centres unmarked) [Cmd 13], the “activity relative to natural STING ligand 3′,3′-cGAMP” value in experiment [5] and in experiment [6] was “more active” in each case. Moreover, the EC50 in experiment [2] was 50 to 500 nM; in experiment [3], less than 50 nM.

On to `CCCCCCOc1ccc(C(=O)Oc2ccc(CSP3(=O)OC[C@H]4O[C@@H](n5cnc6c(N)ncnc65)[C@H](F)[C@@H]4OP(=O)(O)OC[C@H]4O[C@@H](n5ccc(=O)[nH]c5=O)[C@H](F)[C@@H]4O3)cc2)cc1.N` (some centres unmarked) [Cmd 14], for which the “activity relative to natural STING ligand 3′,3′-cGAMP” value in experiment [5] and in experiment [6] was “more active” throughout. For the same compound, the 50% effective concentration (EC50) in experiment [2] and in experiment [3] was less than 50 nM each time.

For `CCCCCCCCCCCCOc1ccc(C(=O)Oc2ccc(CSP3(=O)OC[C@H]4O[C@@H](n5cnc6c(N)ncnc65)[C@H](F)[C@@H]4OP(=O)(O)OC[C@H]4O[C@@H](n5ccc(=O)[nH]c5=O)[C@H](F)[C@@H]4O3)cc2)cc1.N` (some centres unmarked) [Cmd 15], the “activity relative to natural STING ligand 3′,3′-cGAMP” value in experiment [5] and in experiment [6] was “more active” each time. Moreover, the “type III interferon (IL-29) production” value in experiment [7] is listed as “induce type III interferon (IL-29) production”. Besides, the 50% effective concentration (EC50) in experiment [2] and in experiment [3] was less than 50 nM in each case.

With `CO[C@@H]1[C@@H]2OP(=O)(S)OC[C@H]3O[C@@H](n4cnc5c(N)ncnc54)C[C@@H]3OP(=O)(S)OC[C@H]2O[C@H]1n1ccc(=O)[nH]c1=O` (some centres unmarked) [Cmd 17], the concentration giving a half-maximal response (EC50) in experiment [2] (Homo sapiens) and in experiment [3] (Homo sapiens) was more than 2000 nM in each case.

In the case of `Nc1nc2c(ncn2[C@@H]2O[C@@H]3COP(=O)(S)O[C@H]4[C@@H](O)[C@H](n5cnc6c(=O)[nH]c(N)nc65)O[C@@H]4COP(=O)(S)O[C@H]3[C@H]2O)c(=O)[nH]1` (some centres unmarked) [Cmd 18], the EC50 in experiment [2] (Homo sapiens) and in experiment [3] (Homo sapiens) was more than 2000 nM each time.

In the case of `CCCCCCCCCCOc1ccc(C(=O)Oc2ccc(CSP3(=O)OC[C@H]4O[C@@H](n5cnc6c(N)ncnc65)C[C@@H]4OP(=O)(SCc4ccc(OC(=O)c5ccc(OCCCCCCCCCC)cc5)cc4)OC[C@H]4O[C@@H](n5ccc(=O)[nH]c5=O)[C@H](OC)[C@@H]4O3)cc2)cc1` (some centres unmarked) [Cmd 20], the 50% effective concentration (EC50) in experiment [2] and in experiment [3] was more than 2000 nM each time.

Turning to `N.N.Nc1ncnc2c1ncn2[C@@H]1O[C@@H]2COP(=O)(S)O[C@H]3[C@@H](F)[C@H](n4ccc(=O)[nH]c4=O)O[C@@H]3COP(=O)(O)O[C@H]2[C@H]1F` (some centres unmarked) [Cmd 21], the survival rate result in experiment [1] is recorded as “significantly improve the survival rate”. Also, the tumor growth result is reported as “considerable tumor growth inhibition; also recorded: inhibit mouse A20 B cell lymphoma tumor cells” in experiment [1], “considerable tumor growth inhibition” in experiment [8] (vs vehicle (FIG. 79)) and “considerable tumor growth inhibition” in experiment [8] (setting [9]). Moreover, the 50% effective concentration (EC50) is more than 2000 nM in experiment [2] (Homo sapiens) and 500 to 1000 nM in experiment [3] (Homo sapiens).

Take `CCCCCCCCCCCCOc1ccc(C(=O)Oc2ccc(CS[P@@]3(=O)OC[C@H]4O[C@@H](n5cnc6c(N)ncnc65)[C@H](F)[C@@H]4OP(=O)(O)OC[C@H]4O[C@@H](n5ccc(=O)[nH]c5=O)[C@H](F)[C@@H]4O3)cc2)cc1` [Cmd 22]: the EC50 in experiment [2] is 50 to 500 nM; in experiment [3] it was less than 50 nM.

Turning to `CCCCCCCCCCCCOc1ccc(C(=O)Oc2ccc(CS[P@]3(=O)OC[C@H]4O[C@@H](n5cnc6c(N)ncnc65)[C@H](F)[C@@H]4OP(=O)(O)OC[C@H]4O[C@@H](n5ccc(=O)[nH]c5=O)[C@H](F)[C@@H]4O3)cc2)cc1` [Cmd 23], the values for the EC50 in experiment [2] and in experiment [3] were 50 to 500 nM and less than 50 nM, respectively.

On to `CCCCCCCCCCOc1ccc(C(=O)Oc2ccc(CSP3(=O)OC[C@H]4O[C@@H](n5cnc6c(N)ncnc65)[C@H](F)[C@@H]4OP(=O)(O)OC[C@H]4O[C@@H](n5ccc(=O)[nH]c5=O)[C@H](F)[C@@H]4O3)cc2)c(C)c1` (some centres unmarked) [Cmd 25], for which the concentration giving a half-maximal response (EC50) was 50 to 500 nM in experiment [2] and less than 50 nM in experiment [3]. The tumor growth result in experiment [8] (vs vehicle (FIG. 79)) and in experiment [8] (setting [9]) was “considerable tumor growth inhibition” each time.

For the compound `CCCCCCCCCCOC(=O)Oc1ccc(CSP2(=O)OC[C@H]3O[C@@H](n4cnc5c(N)ncnc54)[C@H](F)[C@@H]3OP(=O)(O)OC[C@H]3O[C@@H](n4ccc(=O)[nH]c4=O)[C@H](F)[C@@H]3O2)cc1` (some centres unmarked) [Cmd 26], the EC50 in experiment [2] and in experiment [3] was less than 50 nM throughout.

In the case of `CCCCCCCCCCOc1ccc(Oc2ccc(CSP3(=O)OC[C@H]4O[C@@H](n5cnc6c(N)ncnc65)[C@H](F)[C@@H]4OP(=O)(O)OC[C@H]4O[C@@H](n5ccc(=O)[nH]c5=O)[C@H](F)[C@@H]4O3)cc2)cc1` (some centres unmarked) [Cmd 29], the EC50 in experiment [2] lay in the range of 500 to 1000 nM; in experiment [3] it was 50 to 500 nM.

Take `CCCCCCCCCCOc1ccc(C(=O)Nc2ccc(CSP3(=O)OC[C@H]4O[C@@H](n5cnc6c(N)ncnc65)[C@H](F)[C@@H]4OP(=O)(O)OC[C@H]4O[C@@H](n5ccc(=O)[nH]c5=O)[C@H](F)[C@@H]4O3)cc2)cc1` (some centres unmarked) [Cmd 30]: the EC50 was more than 2000 nM in experiment [2] and 500 to 1000 nM in experiment [3].

Regarding `CCCCCCCCCCOc1ccc(C(=O)NCc2ccc(CSP3(=O)OC[C@H]4O[C@@H](n5cnc6c(N)ncnc65)[C@H](F)[C@@H]4OP(=O)(O)OC[C@H]4O[C@@H](n5ccc(=O)[nH]c5=O)[C@H](F)[C@@H]4O3)cc2)cc1` (some centres unmarked) [Cmd 31], the EC50 in experiment [2] is more than 2000 nM; in experiment [3], 500 to 1000 nM.

For the compound `CCCCCCCCCCNC(=O)Oc1ccc(CSP2(=O)OC[C@H]3O[C@@H](n4cnc5c(N)ncnc54)[C@H](F)[C@@H]3OP(=O)(O)OC[C@H]3O[C@@H](n4ccc(=O)[nH]c4=O)[C@H](F)[C@@H]3O2)cc1` (some centres unmarked) [Cmd 32], the concentration for a half-maximal effect (EC50) in experiment [2] and in experiment [3] was 50 to 500 nM in each case.
